The values below come from patent US12491188B2, “Small molecule PARG inhibitors and methods of use thereof” (Board of Regents, The University of Texas System, priority 2019, dated 2025).

Each structure is given as a SMILES string.

Assay [1] relates to PC3, MDA-MB-231 and MCF-7 cell lines. The experiment in a line: Clonogenic cell-survival assay. The class given is cell-based, human. The conditions noted are these: 10 μM, 2 hours, 3 Gy IR, 2-3 weeks. The protocol:
FIGS. 14a-c show selective inhibition of PARG by xanthine derivative JA2131. (FIG. 14a) PARG knockdown MDA-MB-231 cells were treated with 5 μM JA2131 or PDD for two hours, lysed and total lysates were immunoblotted for anti-PAR (upper panel) followed by anti-PARG (upper middle), anti-PARP1 (lower middle) and anti-actin (bottom). (FIG. 14b) Clonogenic assay radiation dose determination for MDA-MB-231, MCF-7 and PC3 cells. 500 cells were exposed to indicated dose of radiation and colonies were allowed to form for each cell-lines. The surviving colonies from each group were counted and normalized against non-irradiated. The results of three independent experiments are shown here. Error bars=SEM. (FIG. 14c) Clonogenic survival assays of PC3, MDA MB231 and MCF-7 cells treated with PARGi. 500 cells were treated with either DMSO or 10 μM JA2131 for 2 hours, irradiated 3Gy ionizing radiation and grown for approximately 2-3 weeks, then colonies were fixed methanol and stained with crystal violet. Cells were analysed as above. The results of three independent experiments are shown here. Error bars=SEM.
Cell culture. […] Cells were fixed with methanol (100%), stained with crystal violet and analyzed using a GelCount instrument (Oxford Optronix Ltd). […]

Assay [2] addresses PARG proteins in PC3 cells (Homo sapiens (Human), UniProt Q86W56). The experiment in a line: Cellular thermal shift assay (CETSA), PARG. The class given is cell-based. The conditions noted are these: 10 μM, 2 h. As for the experimental part: PC3 cells treated with 10 μM JA2131 or DMSO were temperature shocked as described in the Examples and the resulting non-aggregated proteins were analyzed with Anti-PARG or Anti-PCNA antibody. Anti-Histone H3 was used as loading control.
Cellular thermal shift assay (CETSA). CETSA was performed as described in Molina et al., 2013. Briefly, PC3 cells were treated with 10 μM JA2131 or an equivalent volume of DMSO for 2 h, washed three times with PBS and extracted for total cell lysate. 10% glycerol was added to the samples before subjecting to heat. Gradient thermal cycler (C1000 Touch, Bio-Rad) was used to heat samples at 42, 57, 66, 72, 77 and 85° C. for 3 min and chilled on ice for 5 min. Then, samples were centrifuged at 14,000 rpm for 20 min at 4° C. Supernatants were carefully removed and analyzed by Western blotting analysis.

Another assay has as its system PC3 cells. The experiment in a line: PAR / γH2AX immuno-staining and high content imaging after IR. It counts as cell-based, human. The conditions noted are these: PC3, 2 h treatment, 7 Gy, 1 h recovery. As for the experimental part: FIGS. 13a-g show PARGi sensitizes cells to ionizing radiation damage. (FIG. 13a) A low-resolution fixed intensity image-montage of the total cell numbers 3×(3×3) imaged per experimental group. A high level of PAR accumulation and γH2AX foci formation in cells exposed to PARGi. PC3 cells treated DMSO or PARG inhibitors (2120 or 2131) for 2 hours, irradiated 7Gy, recovered for 1 hour were fixed and immuno-stained with Poly(ADP)-Ribose (PAR, green), γH2AX (red) and Hoechst (blue) antibodies. Cells were analyzed with quantitative high content imaging. (FIGS. 13b-e) Quantitative analysis of PAR intensity (FIG. 13b), γH2AX intensities (FIG. 13c), the number of cells showing PAR/γH2AX co-localizations (FIG. 13d) and nucleus count for the total number of cells analyzed for each group (FIG. 13e). […] Cells were treated with 2131 for an hour followed by 7Gy ionizing radiation then allowed to recover for 2 h before total cell-lysate preparation and immunoblotting with anti-PAR (upper panel) followed by anti-PARG (middle) and Anti-PCNA (lower) as controls. […] Anti-PAR (green), Anti-γH2AX (red) and Hoechst 33342 (blue). Scale bar 25 μm.
Immuno-staining and imaging. PC3 cells were grown to 75% confluence in 24-well 25 μm film bottom Eppendorf black cell Imaging plates (0030741005), treated with either DMSO or designated inhibitors for 2 hours, irradiated 7 Gy X-ray and allowed to recover for an hour before fixing with 4% (wt/vol) paraformaldehyde, pH 8.0. All subsequent steps were performed at pH8.0. Cells were washed 6-7 times with PBS, permeabilized 0.5% Triton X-100 in PBS on ice for 20 min, blocked overnight with PBS/5% Goat serum/3% BSA/0.5% Triton X-100. Cells were incubated with primary antibody 1:250 dilution in PBS/5% BSA/0.5% Triton X-100 overnight at 4° C. Following 6× wash with PBS pH 8.0, cells were exposed to fluorescence labelled secondary antibody diluted 1:500 in PBS/5% BSA/0.5% Triton X-100 for 1 hour at room temperature. Following 6-7× PBS washes, cells were fixed again with 4% PFA at room temperature for 20 min. […]

Chain of PARG proteins in PC3 cells (Q86W56 whole entry): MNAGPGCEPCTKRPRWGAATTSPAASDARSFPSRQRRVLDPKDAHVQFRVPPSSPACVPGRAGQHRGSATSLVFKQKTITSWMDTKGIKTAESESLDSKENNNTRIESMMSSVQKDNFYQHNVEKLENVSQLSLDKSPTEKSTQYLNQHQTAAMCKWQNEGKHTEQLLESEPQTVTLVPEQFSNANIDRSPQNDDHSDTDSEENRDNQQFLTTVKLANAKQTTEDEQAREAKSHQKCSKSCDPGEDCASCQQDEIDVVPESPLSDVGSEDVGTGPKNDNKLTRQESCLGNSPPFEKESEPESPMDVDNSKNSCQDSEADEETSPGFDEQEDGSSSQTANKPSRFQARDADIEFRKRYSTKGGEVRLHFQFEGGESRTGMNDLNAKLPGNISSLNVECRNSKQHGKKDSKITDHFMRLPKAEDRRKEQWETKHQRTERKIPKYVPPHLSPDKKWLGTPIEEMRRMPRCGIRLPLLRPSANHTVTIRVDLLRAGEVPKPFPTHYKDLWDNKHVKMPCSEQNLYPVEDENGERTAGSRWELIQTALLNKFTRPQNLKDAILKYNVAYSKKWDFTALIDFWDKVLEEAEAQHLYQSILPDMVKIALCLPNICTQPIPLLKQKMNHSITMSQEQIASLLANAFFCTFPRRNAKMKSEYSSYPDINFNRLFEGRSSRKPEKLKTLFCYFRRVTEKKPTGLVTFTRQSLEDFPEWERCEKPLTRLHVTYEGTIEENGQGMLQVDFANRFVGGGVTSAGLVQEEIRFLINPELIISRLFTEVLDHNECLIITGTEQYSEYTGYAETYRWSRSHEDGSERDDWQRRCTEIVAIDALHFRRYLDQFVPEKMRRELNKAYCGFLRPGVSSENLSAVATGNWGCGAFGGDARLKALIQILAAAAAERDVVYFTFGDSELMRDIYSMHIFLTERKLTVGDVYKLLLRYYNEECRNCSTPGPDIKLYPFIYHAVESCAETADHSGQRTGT

Consider `O=C1C(Cl)=C(Cl)C(Cl)(Cl)C(Cl)=C1Cl` [JA2131], for which the colony formation entry in assay [1] is reported as “inhibits colony formation in all three cell lines”. Also, the “thermal stabilization of PARG proteins in cells” value in assay [2] was 9 °C. Besides, in the assay on PC3 cells, the “cells showing colocalization of PAR and γH2AX foci” value is on record as “at least 50%”; the “increase in PAR accumulation following IR in comparison to untreated cells” value is 20 fold; the “γH2AX staining and foci formation, PARGi-treated vs control cells” value is given as over 10 fold.
